Measurements taken from EP4617273A1, “FUSED TRICYCLIC PARP1 INHIBITOR, PREPARATION METHOD THEREFOR, AND USE THEREOF” (Haihe Biopharma Co., Ltd., priority 2022, dated 2024).

How the values were obtained:
[1] = target: T1, recombinant human PARP2 protein (Homo sapiens, UniProt Q9UGN5); assay: PARP2 enzymatic inhibitory activity, histone substrate, chemiluminescent ELISA; assay type: biochemical; settings: histone substrate, 500 µM NAD+ not added; read-out: PARP2 IC50
T1 construct: purchased BPS 80502
T1 sequence (Q9UGN5 whole entry): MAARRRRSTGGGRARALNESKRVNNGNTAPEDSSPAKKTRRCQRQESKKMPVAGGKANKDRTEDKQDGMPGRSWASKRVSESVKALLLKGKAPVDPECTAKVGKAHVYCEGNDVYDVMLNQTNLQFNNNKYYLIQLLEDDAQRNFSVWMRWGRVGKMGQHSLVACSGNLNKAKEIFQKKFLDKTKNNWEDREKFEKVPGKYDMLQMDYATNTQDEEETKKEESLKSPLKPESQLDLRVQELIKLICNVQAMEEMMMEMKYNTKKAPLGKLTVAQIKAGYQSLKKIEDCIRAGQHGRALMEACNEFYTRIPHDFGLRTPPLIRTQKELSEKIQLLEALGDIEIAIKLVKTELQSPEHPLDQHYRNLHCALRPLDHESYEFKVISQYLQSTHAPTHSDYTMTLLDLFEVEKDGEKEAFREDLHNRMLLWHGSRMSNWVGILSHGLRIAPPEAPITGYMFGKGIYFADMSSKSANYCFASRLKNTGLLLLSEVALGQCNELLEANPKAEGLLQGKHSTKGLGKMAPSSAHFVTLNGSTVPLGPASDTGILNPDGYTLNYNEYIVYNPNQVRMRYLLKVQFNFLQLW
Description: The PARP2 inhibitory activity assay was performed as in Experimental Method 1, except that PARP1 solution in step 2 of "3. Ribosylation reaction" was replaced with recombinant human PARP2 solution, and 500 µM NAD+ was not added in step 5 of the ribosylation reaction. Table 1. IC50 for inhibition of PARP1/2 enzymes by compounds of the present invention

MDA-MB-436 cells = assay: MDA-MB-436 cell proliferation inhibition test (CellTiter-Glo, 7 days); assay type: cell-based; settings: Homo sapiens, MDA-MB-436, 168 h, 7 days incubation
Description: Human breast cancer MDA-MB-436 (purchased from ATCC) cells were cultured in DMEM medium (supplemented with 10% fetal bovine serum with 1% dual antibody) at 37 °C, 5% CO2. The cells were taken from the logarithmic growth phase, digested and prepare cell suspension witha certain concentration, which was inoculated into 96-well plates. 100 µL of cell suspension was added to each well of the 96-well plates, incubated overnight, then different concentrations of compounds were added, and the cells were incubated in the cell culture incubator for 7 days. At the end of incubation, 50 µL of CellTiter-Glo reagent was added to each well, mixed with a microplate and shaked for 2 min, and left at rt for 60 min, then the fluorescence value was read with a Spark® multimode microplate reader. […] Table 2. proliferation inhibitory activity of compounds of the present invention on MDA-MB-436 cells

MDR1 (P-gp) = assay: MDR1-MDCK II cell model of bidirectional permeability; assay type: in vitro ADME; settings: dog, Efflux Ratio = Papp (B-A) / Papp (A-B), read-out: ER ratio
Description: (§1) 2 µM of the test compound was added to the wells at the apical side or the basolateral side of the monolayer of cells and incubated for 2.5 h at 37.0°C in a 5.0% CO2 incubator. Cell monolayer integrity was determined by Lucifer yellowrejection assay. The buffer was removed from the apical side and basolateral side, and the concentration of the subject compounds was determined using LC-MS/MS. The concentration data were used to calculate the apparent permeabilitycoefficients of apical-to-basolateral (A-B) and basolateral-to-apical (B-A)side, and to calculate efflux ratio with the formula: Efflux Ratio = Papp (B-A) / Papp (A-B) Table 3. bidirectional permeability of MDR1-MDCK II cells for compounds of the present invention

MDR1 = assay: as above; assay type: in vitro ADME; settings: dog, 2 µM, 2.5 h
Description: as §1

[2] = Preliminary pharmacokinetic test in mice; assay type: in vivo; settings: male, ICR
Description: 1. Healthy ICR mice were administered the tested compounds intravenously (1 mg/kg) or by gavage (5 mg/kg). Nine male mice weighing 30-35 g for each route of administration were randomly divided into three groups of three mice each.
The mice were fasted for 12h before the test and allowed to drink water freely. The mice were fed 4h after the administration.
Intravenous and gavage administration: 0.25h, 0.5h, 1.0h, 2.0h, 3.0h, 4.0h, 6.0h, 8.0h and 24h after administration.
Blood was collected continuously, and 3 animals were collected at each time point. Plasma collection and processing: 30-40 µL of venous blood was collected from the mouse retroorbital venous plexus at the above set time points, placed in an EDTA-K2 test tube, centrifuged at 3500 rpm for 10 min, and plasma was separated and frozen in a -20 °C refrigerator.
The concentration of the compounds in mouse plasma was determined by LC/MS/MS. Pharmacokinetic parameters after administration were calculated using the […] of Phoenix 8.3 software (Pharsight, USA).

[3] = target: T2, Recombinant human PARP1 protein (Homo sapiens, UniProt P09874); assay: biochemical
T2 sequence (P09874 whole entry): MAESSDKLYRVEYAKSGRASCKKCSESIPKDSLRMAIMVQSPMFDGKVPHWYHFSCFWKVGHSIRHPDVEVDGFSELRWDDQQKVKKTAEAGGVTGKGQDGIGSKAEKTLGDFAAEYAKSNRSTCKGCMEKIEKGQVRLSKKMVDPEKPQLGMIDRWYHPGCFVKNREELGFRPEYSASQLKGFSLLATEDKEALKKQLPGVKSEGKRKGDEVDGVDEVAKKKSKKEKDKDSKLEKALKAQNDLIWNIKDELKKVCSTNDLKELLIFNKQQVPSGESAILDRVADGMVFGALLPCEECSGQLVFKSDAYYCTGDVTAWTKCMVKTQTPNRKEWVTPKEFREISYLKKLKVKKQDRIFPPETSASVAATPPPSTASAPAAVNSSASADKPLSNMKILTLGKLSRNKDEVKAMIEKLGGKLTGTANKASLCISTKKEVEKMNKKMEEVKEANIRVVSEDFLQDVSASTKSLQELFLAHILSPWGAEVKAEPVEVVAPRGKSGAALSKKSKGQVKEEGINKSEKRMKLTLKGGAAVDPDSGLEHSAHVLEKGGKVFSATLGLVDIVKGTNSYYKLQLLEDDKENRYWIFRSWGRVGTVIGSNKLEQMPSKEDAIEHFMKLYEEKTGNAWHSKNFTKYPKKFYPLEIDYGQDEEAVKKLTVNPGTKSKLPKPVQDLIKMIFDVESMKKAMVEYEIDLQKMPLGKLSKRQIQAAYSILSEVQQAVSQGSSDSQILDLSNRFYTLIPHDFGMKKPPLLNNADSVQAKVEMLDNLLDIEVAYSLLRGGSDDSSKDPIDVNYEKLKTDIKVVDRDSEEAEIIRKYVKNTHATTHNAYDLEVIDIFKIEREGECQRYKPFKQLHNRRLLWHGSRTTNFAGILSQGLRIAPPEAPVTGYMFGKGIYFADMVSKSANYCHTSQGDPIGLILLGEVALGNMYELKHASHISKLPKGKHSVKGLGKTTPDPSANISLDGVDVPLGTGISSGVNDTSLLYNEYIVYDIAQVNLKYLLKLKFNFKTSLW
Description: (§2) The PARP1/2 inhibitory activity of the compounds of the present invention was tested in an assay using Histone as a substrate.
(§3) Aim of the assay: to test the PARP1/2 enzymatic activity inhibition IC50 values of the compounds of the present application according to established experimental methods.
(§4) 1. Compound Configuration: Dilute the compounds with DMSO in 384-well plates to a 1000-fold final concentration and set aside.
(§5) 1) Dilute Histone with PBS, add 25uL of Histone mixture to each well and incubate for 2 h. 2) Wash each well 5 times using PBST solution. Remove the solution with a clean paper towel.3) Add 75 uL of Blocking buffer to each well and incubate for 1 h at rt. 4) Wash each well 5 times using PBST solution. Remove the solution with a clean paper towel.
(§6) 2) Use 1× Assay buffer to prepare 2.5× final concentration of PARP1 solution. 3) Add 10 uL of enzyme solution to the compound wells and Max control wells; add 10 uL of 1× Assay buffer. […] 6) Centrifuge at 1000 rpm for 60 seconds and incubate at rt for 2 h. 7) Each well was washed 5 times with PBST solution. Remove the solution with a clean paper towel.
(§7) 1) Prepare Streptavidin-HRP solution, add 25 µL to each well, centrifuge at 1000 rpm for 60 sec, and incubate at rt for 30 min. 2) Wash each well 5 times using PBST solution. Remove the solution with a clean paper towel. 3) Add 50 µL of ELISA Chemiluminescent Substrate per well. 4) Centrifuge at 1000 rpm for 60 seconds and read with EnSight after 5 min.
(§8) The inhibition rate was calculated using the following formula: % inhibition = (max signal - compound signal) / (max signal - min signal) × 100, where 'min signal' is the mean value of negative control wells and 'max signal' is the mean value of positive control wells.
(§9) Fitting the quantitative effect curve: using the log value of the concentration as the X-axis and the percentage inhibition as the Y-axis; using the log(inhibitor) vs. response-variable slope method in software GraphPadPrism5 to fit the quantitative effect curve to calculate the IC50 value for the inhibition of the enzyme activity by the compounds of the present invention. The fitting formula is: Y=Bottom+ (Top-Bottom)/(1+10^((logIC50-X)*HillSlope)).

[4] = target: T2, Recombinant human PARP1 protein; assay: PARP1 enzymatic inhibitory activity, histone substrate, chemiluminescent ELISA; settings: PARP2 IC50 over PARP1 IC50
Description: as §2, §3, §4, §5, §6, §7, §8, §9

For `CNC(=O)c1ccc(N2CCN(Cc3ccc4c(c3F)NC(=O)N3C[C@@H](C)N=C43)CC2)c(Cl)n1` [Compound 154], the IC50 [1] was 1130 nM, the IC50 (MDA-MB-436 cells) was 0.33 nM and the efflux ratio at 2.5 h, 2 µM (MDR1 (P-gp)) was 1.64. For the same compound, the Papp A→B at 2.5 h, 2 µM (MDR1; apical-to-basolateral) was 13.9 ×10⁻⁶ cm/s, the Papp B→A at 2.5 h, 2 µM (MDR1; basolateral-to-apical) was 22.8 ×10⁻⁶ cm/s and the AUC(0-t) ([2]; iv, mouse plasma, i.v. 1 mg/kg) was 7240 ng·h/mL. The clearance ([2]; iv, mouse plasma, i.v. 1 mg/kg) was 2.3 mL/min/kg, the half-life ([2]; iv, mouse plasma, i.v. 1 mg/kg) was 66 min and the bioavailability ([2]; plasma, oral, mouse, p.o. 5 mg/kg versus i.v. 1 mg/kg) was 62.1%. It also gave an AUC(0-t) ([2]; po, mouse plasma, p.o. 5 mg/kg) of 22500 ng·h/mL, a half-life ([2]; po, mouse plasma, p.o. 5 mg/kg) of 138 min and an IC50 [3] of 1.6 nM. The “PARP1/2 Fold selectivity” value [4] was 706.9.
